13 compounds from paper PMC9974930 (Journal of medicinal chemistry, 2023) can be followed below.

Read-outs that look alike come from different tables or passages of the source.

Series [1] addresses T1, recombinant human sEH (HsEH) (Homo sapiens, UniProt P34913).
T1 sequence (P34913 1-555): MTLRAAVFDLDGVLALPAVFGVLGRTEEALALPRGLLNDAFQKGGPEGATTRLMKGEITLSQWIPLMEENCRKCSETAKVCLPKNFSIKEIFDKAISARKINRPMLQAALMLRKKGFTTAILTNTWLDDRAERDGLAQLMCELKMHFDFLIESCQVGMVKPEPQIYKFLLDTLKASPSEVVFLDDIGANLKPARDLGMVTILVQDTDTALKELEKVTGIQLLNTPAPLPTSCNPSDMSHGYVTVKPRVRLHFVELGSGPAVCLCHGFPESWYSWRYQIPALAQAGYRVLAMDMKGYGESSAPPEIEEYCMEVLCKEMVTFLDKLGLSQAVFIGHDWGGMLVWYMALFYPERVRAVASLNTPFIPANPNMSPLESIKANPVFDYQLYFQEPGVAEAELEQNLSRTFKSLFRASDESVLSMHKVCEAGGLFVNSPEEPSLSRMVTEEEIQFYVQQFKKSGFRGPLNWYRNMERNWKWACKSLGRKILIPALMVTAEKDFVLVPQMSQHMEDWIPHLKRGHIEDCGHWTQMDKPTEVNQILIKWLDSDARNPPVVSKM
In words: biochemical.

The next series has as its system CFA-induced AIA mice. In words: CFA-induced arthritis. The note with it: 10 mg / kg ip; for body weight change: 24 h of drug treatment. It counts as in vivo, Kunming mice.
The subject of series [2] is COX-2, sEH, NOS-2 and VCAM. In words: Western blot of inflammatory factors in plasma, LPS-induced sepsis model. It is filed as in vivo, C57BL/6 mice. The conditions noted are these: 5 mg / kg ip.
In the next series the test system is IL-6, MCP-5 and TNF-α. In words: ELISA of plasma inflammatory factors, LPS-induced sepsis model. The note with it: 5 mg / kg ip. It counts as in vivo, C57BL/6 mice.
Series [3] in a line: Pharmacokinetic study in vivo.
Series [4] can be described thus: Microsomal stability in rat liver microsomes.
Series [5] is described as follows: Microsomal stability in human liver microsomes.
The next series has as its system LPS-induced sepsis model. In words: LPS-induced sepsis model, survival. It is filed as in vivo, C57BL/6 mice. The note with it: 28 hours; LPS 30 mg / kg ip; 5 mg / kg ip at 4 h and 12 h later.
Setting [6] is: both, Sprague-Dawley, rat, in vivo, iv, 10 mg/kg.

In the case of `CCC(=O)N1CCCN(C(=O)C2CCCN(Cc3ccc(NC(=O)N[C@@]45C[C@@H]6C[C@@](C)(C[C@@](C)(C6)C4)C5)c(F)c3)C2)CC1` (stereo partly drawn) [G1, 1-((1r,3R,5S,7r)-3,5-Dimethyladamantan-1-yl)-3-(2-fluoro-4-((3-(4-propionyl-1,4-diazepane-1-carbonyl)piperidin-1-yl)methyl)phenyl)urea], the “LLE (ligand lipophilicity efficiency)” value in series [1] turned out to be 7.553. Moreover, in the series with CFA-induced AIA mice, the “effect on paw swelling rate, in words” value is reported as “significantly reduced the swelling rate of mouse paw thickness”; the “increase of pain valve (pain threshold, hot plate)” value turned out to be 70.10%; the “reduced foot swelling, thickness” value came out at 21.4%; the “reduced foot swelling, width” value is given as 6.98%. The body weight change entry in the series with CFA-induced AIA mice is given as “increase in body weight”. Moreover, in the series with CFA-induced AIA mice (hot plate), the “effect on pain threshold, in words” value was “faster onset of analgesia than celecoxib”; the “time after administration at which analgesic effect began” value came out at 10 min; the “time of peak analgesic effect” value worked out at 2 h. In series [2], the COX-2 expression levels result is “higher than in the control group” and the NOS-2 expression result is recorded as “reduced NOS-2 expression”. The “expression of sEH” value in series [2] (compared to the model group) is on record as “significantly reduced the expression of sEH”. Further, in series [2] (compared to the solvent group), the “vascular cell adhesion molecule (VCAM)” value is given as “little change”. In addition, in the series on IL-6, MCP-5 and TNF-α, the IL-6 levels result is recorded as “significant reduction in IL-6 levels”, the TNF-α levels entry is given as “considerably lowered TNF-α levels” and the “effect of lowering MCP-5” value is “lower than dexamethasone”. Also, in series [3] (setting [6]), the AUC(0-inf) was 0.0115 µM·h and the clearance was 4.83 mL/min/kg. This compound registered an AUC(0-inf) in series [3] (both, Sprague-Dawley, rat, in vivo, po, 50 mg/kg) of 0.0102 µM·h. In series [3] (rats, po 50 mg / kg), the “CL” value came to 28.3 mL/min/kg and the “VZ” value stood at 13.12 L/kg. The “Mean concentration of G1 in microsomal buffer” value (“Mean concentration of G1” below) in series [4] (time 0) amounted to 100 µg/mL. Further, the “Mean concentration of G1” value in series [4] (time 10) is 75.04 µg/mL. Also, in series [4] (time 30), the “Mean concentration of G1” value came out at 66.63 µg/mL. Moreover, the “Mean concentration of G1” value in series [4] (time 60) worked out at 62.01 µg/mL. The “Mean concentration of G1” value in series [5] (time 0) stood at 100 µg/mL. Moreover, the “Mean concentration of G1” value in series [5] (time 10) was 81.12 µg/mL. For the same compound, in series [5] (time 30), the “Mean concentration of G1” value came to 74.76 µg/mL. Moreover, the “Mean concentration of G1” value in series [5] (time 60) amounted to 68.78 µg/mL.

`CCC(=O)N1CCC(CC(=O)N2CCCN(C(=O)c3ccc(NC(=O)N[C@@]45C[C@@H]6C[C@@](C)(C[C@@](C)(C6)C4)C5)c(F)c3)CC2)CC1` [H1, 1-((1r,3R,5S,7r)-3,5-Dimethyladamantan-1-yl)-3-(2-fluoro-4-(4-(2-(1-propionylpiperidin-4-yl)acetyl)-1,4-diazepane-1-carbonyl)phenyl)urea]: the “LLE (ligand lipophilicity efficiency)” value in series [1] (LLE = pIC50-cLogP) was found to be 5.848.

As for `C=C(C)C(=O)N1CCC(CC(=O)N2CCCN(C(=O)c3ccc(NC(=O)N[C@@]45C[C@@H]6C[C@@](C)(C[C@@](C)(C6)C4)C5)cc3)CC2)CC1` [H3, 1-((1r,3R,5S,7r)-3,5-Dimethyladamantan-1-yl)-3-(4-(4-(2-(1-methacryloylpiperidin-4-yl)acetyl)-1,4-diazepane-1-carbonyl)phenyl)urea], the “LLE (ligand lipophilicity efficiency)” value in series [1] (LLE = pIC50-cLogP) was found to be 5.530.

`CC(CN(C)C)N1CCC(CC(=O)N2CCCN(C(=O)c3ccc(NC(=O)N[C@@]45C[C@@H]6C[C@@](C)(C[C@@](C)(C6)C4)C5)c(F)c3)CC2)CC1` (stereo partly drawn) [H4, 1-((1r,3R,5S,7r)-3,5-Dimethyladamantan-1-yl)-3-(4-(4-(2-(1-(1-(dimethylamino)propan-2-yl)piperidin-4-yl)acetyl)-1,4-diazepane-1-carbonyl)-2-fluorophenyl)urea]: in series [1] (LLE = pIC50-cLogP), the “LLE (ligand lipophilicity efficiency)” value is 3.920.

On to `CC(=O)N1CCC(CC(=O)N2CCCN(Cc3ccc(NC(=O)N[C@@]45C[C@@H]6C[C@@](C)(C[C@@](C)(C6)C4)C5)c(F)c3)CC2)CC1` [I1, 1-(4-((4-(2-(1-Acetylpiperidin-4-yl)acetyl)-1,4-diazepan-1-yl)methyl)-2-fluorophenyl)-3-((1r,3R,5S,7r)-3,5-dimethyladamantan-1-yl)urea], for which, in series [1] (LLE = pIC50-cLogP), the “LLE (ligand lipophilicity efficiency)” value stood at 6.119.

Consider `CCC(=O)N1CCC(CC(=O)N2CCCN(Cc3ccc(NC(=O)N[C@@]45C[C@@H]6C[C@@](C)(C[C@@](C)(C6)C4)C5)c(F)c3)CC2)CC1` [I2, 1-((1r,3R,5S,7r)-3,5-Dimethyladamantan-1-yl)-3-(2-fluoro-4-((4-(2-(1-propionylpiperidin-4-yl)acetyl)-1,4-diazepan-1-yl)methyl)phenyl)urea], for which the IC50 in series [1] turned out to be 0.35 nM. Also, in series [1] (LLE = pIC50-cLogP), the “LLE (ligand lipophilicity efficiency)” value stood at 5.623.

Turning to `CCC(C)C(=O)N1CCC(CC(=O)N2CCCN(Cc3ccc(NC(=O)N[C@@]45C[C@@H]6C[C@@](C)(C[C@@](C)(C6)C4)C5)c(F)c3)CC2)CC1` (stereo partly drawn) [I3, 1-((1r,3R,5S,7r)-3,5-Dimethyladamantan-1-yl)-3-(2-fluoro-4-((4-(2-(1-(2-methylbutanoyl)piperidin-4-yl)acetyl)-1,4-diazepan-1-yl)methyl)phenyl)urea], the “LLE (ligand lipophilicity efficiency)” value in series [1] (LLE = pIC50-cLogP) was found to be 4.337.

Regarding `COC(=O)N1CCC(CC(=O)N2CCCN(Cc3ccc(NC(=O)N[C@@]45C[C@@H]6C[C@@](C)(C[C@@](C)(C6)C4)C5)c(F)c3)CC2)CC1` [I4, Methyl-4-(2-(4-(4-(3-((1r,3R,5S,7r)-3,5-dimethyladamantan-1-yl)ureido)-3-fluorobenzyl)-1,4-diazepan-1-yl)-2-oxoethyl)piperidine-1-carboxylate], in series [1] (LLE = pIC50-cLogP), the “LLE (ligand lipophilicity efficiency)” value came out at 5.125.

For the compound `C[C@]12C[C@@H]3C[C@](C)(C1)C[C@@](NC(=O)Nc1ccc(CN4CCCN(C(=O)CC5CCN(CCO)CC5)CC4)cc1F)(C3)C2` [I5, 1-((1r,3R,5S,7r)-3,5-Dimethyladamantan-1-yl)-3-(2-fluoro-4-((4-(2-(1-(2-hydroxyethyl)piperidin-4-yl)acetyl)-1,4-diazepan-1-yl)methyl)phenyl)urea], in series [1] (LLE = pIC50-cLogP), the “LLE (ligand lipophilicity efficiency)” value turned out to be 4.937.

Take `CN(C)CCN1CCC(CC(=O)N2CCCN(Cc3ccc(NC(=O)N[C@@]45C[C@@H]6C[C@@](C)(C[C@@](C)(C6)C4)C5)c(F)c3)CC2)CC1` [I7, 1-((1r,3R,5S,7r)-3,5-Dimethyladamantan-1-yl)-3-(4-((4-(2-(1-(2-(dimethylamino)ethyl)piperidin-4-yl)acetyl)-1,4-diazepan-1-yl)methyl)-2-fluorophenyl)urea]: the “LLE (ligand lipophilicity efficiency)” value in series [1] (LLE = pIC50-cLogP) turned out to be 4.517.

Consider `CCN(CC)CCN1CCC(CC(=O)N2CCCN(Cc3ccc(NC(=O)N[C@@]45C[C@@H]6C[C@@](C)(C[C@@](C)(C6)C4)C5)c(F)c3)CC2)CC1` [I8, 1-(4-((4-(2-(1-(2-(Diethylamino)ethyl)piperidin-4-yl)acetyl)-1,4-diazepan-1-yl)methyl) −2-fluorophenyl)-3-((1r,3R,5S,7r)-3,5-dimethyladamantan-1-yl)urea], for which the “LLE (ligand lipophilicity efficiency)” value in series [1] (LLE = pIC50-cLogP) was 3.910.

Turning to `Cc1ccc(-c2cc(C(F)(F)F)nn2-c2ccc(S(N)(=O)=O)cc2)cc1` [celecoxib, reference compound], in the series on CFA-induced AIA mice, the “reduced foot swelling, thickness” value came to 17.99%; the “reduced foot swelling, width” value came to 6.4%; the body weight change entry is on record as “increase in body weight”. Also, the “effect on pain threshold, in words” value in the series on CFA-induced AIA mice (hot plate) was “did not significantly raise the pain threshold at 2 h”.

For the compound `C[C@@H]1C[C@H]2[C@@H]3CCC4=CC(=O)C=C[C@]4(C)[C@@]3(F)[C@@H](O)C[C@]2(C)[C@@]1(O)C(=O)CO` [dexamethasone, reference compound], the survival rate result in the series with LPS-induced sepsis model is listed as “all of the mice in the dexamethasone group died”. In series [2], the COX-2 expression levels entry is listed as “higher than in the control group”. In addition, in the series with IL-6, MCP-5 and TNF-α, the IL-6 levels entry was “significant reduction in IL-6 levels” and the TNF-α levels entry was “considerably lowered TNF-α levels”.
